Source: ChEMBL document CHEMBL5705899 (Biochem J, 2014)
Active and inactive are the calls of the source. No cut-off for these calls is given here.

Experiments:
[1] = biological target: Homeodomain-interacting protein kinase 3 (Homo sapiens) (UniProt Q9H422); experiment: Inhibition of recombinant human N-terminal GST-tagged HIPK3 (161 to 562 residues) expressed in Escherichia coli assessed as remaining activity at 1 uM using MBP as substrate incubated for 30 mins in presence of [gamma-33P]ATP by filter binding method relative to control
[2] = tested on: Ribosomal protein S6 kinase beta-1 (Homo sapiens), P23443 [T412E]; experiment: Inhibition of recombinant human His6-tagged S6K1 T412E mutant (1 to 421 residues) expressed in baculovirus infected sf21 cells assessed as remaining activity at 1 uM using KKRNRTLTVas substrate incubated for 30 mins in presence of [gamma-33P]ATP by filter binding method relative to control
[3] = biological target: Inhibitor of nuclear factor kappa-B kinase subunit beta (Homo sapiens) (UniProt O14920); experiment: Inhibition of recombinant human N-terminal His6-tagged IKKbeta (1 to 736 residues) expressed in baculovirus infected Sf21 cells assessed as remaining activity at 1 uM using LDDRHDSGLDSMKDEEY as substrate incubated for 30 mins in presence of [gamma-33P]ATP by filter binding method relative to control
[4] = biological target: Protein kinase C zeta type (Homo sapiens) (UniProt Q05513); experiment: Inhibition of recombinant human N-terminal His6-tagged PKCzeta (2 to 592 residues) expressed in baculovirus infected Sf21 cells assessed as remaining activity at 1 uM using ERMRPRKRQGSVRRV as substrate incubated for 30 mins in presence of [gamma-33P]ATP by filter binding method relative to control
[5] = biological target: Protein-tyrosine kinase 6 (Homo sapiens) (UniProt Q13882); experiment: Inhibition of recombinant human N-terminal His6-tagged BRK (1 to 451 residues) expressed in baculovirus infected Sf21 cells assessed as remaining activity at 1 uM using Poly (Glu,Tyr) as substrate incubated for 30 mins in presence of [gamma-33P]ATP by filter binding method relative to control
[6] = biological target: Mitogen-activated protein kinase 10 (Homo sapiens) (UniProt P53779); experiment: Inhibition of recombinant human N-terminal GST/C-terminal His6-tagged JNK3 (40 to 422 residues) expressed in Escherichia coli assessed as remaining activity at 1 uM using ATF2 as substrate incubated for 30 mins in presence of [gamma-33P]ATP by filter binding method relative to control
[7] = biological target: Proto-oncogene tyrosine-protein kinase Src (Homo sapiens) (UniProt P12931); experiment: Inhibition of recombinant human N-terminal His6-tagged SRC (1 to 536 residues) expressed in baculovirus infected Sf21 cells assessed as remaining activity at 1 uM using KVEKIGEGTYGVVYK as substrate incubated for 30 mins in presence of [gamma-33P]ATP by filter binding method relative to control
[8] = biological target: Vascular endothelial growth factor receptor 2 (Homo sapiens) (UniProt P35968); experiment: Inhibition of human VEGFR2 at 1 uM using polyEY as substrate in presence of 33P-ATP by ProQinase assay
[9] = biological target: Ephrin type-A receptor 5 (Homo sapiens) (UniProt P54756); experiment: Inhibition of human EPHA5 at 1 uM using polyEY as substrate in presence of 33P-ATP by ProQinase assay
[10] = biological target: Ephrin type-A receptor 2 (Homo sapiens) (UniProt P29317); experiment: Inhibition of human EPHA2 at 1 uM using polyEy as substrate in presence of 33P-ATP by ProQinase assay
[11] = biological target: Ephrin type-A receptor 8 (Homo sapiens) (UniProt P29322); experiment: Inhibition of human EPHA8 at 1 uM using polyEy as substrate in presence of 33P-ATP by ProQinase assay
[12] = biological target: Receptor-type tyrosine-protein kinase FLT3 (Homo sapiens) (UniProt P36888); experiment: Inhibition of human FLT3 at 1 uM using Poly(Ala,Glu,Lys,Tyr) as substrate in presence of 33P-ATP by ProQinase assay
[13] = biological target: Serine/threonine-protein kinase PLK1 (Homo sapiens) (UniProt P53350); experiment: Inhibition of human PLK1 at 1 uM using RBER-CHKtide as substrate in presence of 33P-ATP by ProQinase assay
[14] = biological target: RAC-gamma serine/threonine-protein kinase (Homo sapiens) (UniProt Q9Y243); experiment: Inhibition of human AKT3 at 1 uM using RBER-GSK3 as substrate in presence of 33P-ATP by ProQinase assay
[15] = biological target: Inhibitor of nuclear factor kappa-B kinase subunit epsilon (Homo sapiens) (UniProt Q14164); experiment: Inhibition of human IKKepsilon at 1 uM using RBER-GSK3 as substrate in presence of 33P-ATP by ProQinase assay
[16] = biological target: Serine/threonine-protein kinase Nek11 (Homo sapiens) (UniProt Q8NG66); experiment: Inhibition of human NEK11 at 1 uM using MBP as substrate in presence of 33P-ATP by ProQinase assay
[17] = biological target: Mitogen-activated protein kinase 10 (Homo sapiens) (UniProt P53779); experiment: Inhibition of human JNK3 at 1 uM using ATF2 as substrate in presence of 33P-ATP by ProQinase assay
[18] = biological target: Tyrosine-protein kinase JAK2 (Homo sapiens) (UniProt O60674); experiment: Inhibition of human JAK2 at 1 uM using poly(Ala,Glu,Lys,Tyr) as substrate in presence of 33P-ATP by ProQinase assay
[19] = biological target: SRSF protein kinase 2 (Homo sapiens) (UniProt P78362); experiment: Inhibition of human SRPK2 at 1 uM using MBP as substrate in presence of 33P-ATP by ProQinase assay
[20] = biological target: Serine/threonine-protein kinase PAK 4 (Homo sapiens) (UniProt O96013); experiment: Inhibition of human PAK4 at 1 uM using bio-4xCHKT as substrate in presence of 33P-ATP by ProQinase assay
[21] = biological target: Mitogen-activated protein kinase kinase kinase 8 (Homo sapiens) (UniProt P41279); experiment: Inhibition of human COT at 1 uM using RBER-CHKtide as substrate in presence of 33P-ATP by ProQinase assay
[22] = biological target: Myosin light chain kinase (Homo sapiens) (UniProt Q32MK0); experiment: Inhibition of human MYLK3 at 1 uM using RB-S6P as substrate in presence of 33P-ATP by ProQinase assay
[23] = biological target: MAP kinase-activated protein kinase 2 (Homo sapiens) (UniProt P49137); experiment: Inhibition of human MAPKAPK2 at 1 uM using RBER-CHKtide as substrate in presence of 33P-ATP by ProQinase assay
[24] = biological target: MAP kinase-activated protein kinase 5 (Homo sapiens) (UniProt Q8IW41); experiment: Inhibition of human MAPKAPK5 at 1 uM using RBER-CHKtide as substrate in presence of 33P-ATP by ProQinase assay
[25] = biological target: Phosphatidylinositol 4-phosphate 3-kinase C2 domain-containing subunit beta (Homo sapiens, UniProt O00750); experiment: Inhibition of human PIK3C2B using PIP2/PS as substrate by ADP-Glo assay

Mitogen-activated protein kinase 10 (Homo sapiens), sequence (P53779 whole entry, the tested form may be a part): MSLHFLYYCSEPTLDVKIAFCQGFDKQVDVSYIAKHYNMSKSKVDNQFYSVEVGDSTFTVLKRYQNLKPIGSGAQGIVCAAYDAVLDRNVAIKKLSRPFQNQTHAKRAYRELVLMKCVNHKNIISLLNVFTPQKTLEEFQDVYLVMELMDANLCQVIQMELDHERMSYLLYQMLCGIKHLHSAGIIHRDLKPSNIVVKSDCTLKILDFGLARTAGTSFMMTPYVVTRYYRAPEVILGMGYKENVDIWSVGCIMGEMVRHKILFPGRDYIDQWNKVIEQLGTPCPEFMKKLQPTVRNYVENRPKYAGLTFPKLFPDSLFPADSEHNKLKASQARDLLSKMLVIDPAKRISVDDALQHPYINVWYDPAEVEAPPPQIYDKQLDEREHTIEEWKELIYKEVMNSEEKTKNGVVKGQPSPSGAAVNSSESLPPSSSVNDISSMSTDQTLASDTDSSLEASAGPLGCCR
Vascular endothelial growth factor receptor 2 (Homo sapiens), sequence (P35968 whole entry): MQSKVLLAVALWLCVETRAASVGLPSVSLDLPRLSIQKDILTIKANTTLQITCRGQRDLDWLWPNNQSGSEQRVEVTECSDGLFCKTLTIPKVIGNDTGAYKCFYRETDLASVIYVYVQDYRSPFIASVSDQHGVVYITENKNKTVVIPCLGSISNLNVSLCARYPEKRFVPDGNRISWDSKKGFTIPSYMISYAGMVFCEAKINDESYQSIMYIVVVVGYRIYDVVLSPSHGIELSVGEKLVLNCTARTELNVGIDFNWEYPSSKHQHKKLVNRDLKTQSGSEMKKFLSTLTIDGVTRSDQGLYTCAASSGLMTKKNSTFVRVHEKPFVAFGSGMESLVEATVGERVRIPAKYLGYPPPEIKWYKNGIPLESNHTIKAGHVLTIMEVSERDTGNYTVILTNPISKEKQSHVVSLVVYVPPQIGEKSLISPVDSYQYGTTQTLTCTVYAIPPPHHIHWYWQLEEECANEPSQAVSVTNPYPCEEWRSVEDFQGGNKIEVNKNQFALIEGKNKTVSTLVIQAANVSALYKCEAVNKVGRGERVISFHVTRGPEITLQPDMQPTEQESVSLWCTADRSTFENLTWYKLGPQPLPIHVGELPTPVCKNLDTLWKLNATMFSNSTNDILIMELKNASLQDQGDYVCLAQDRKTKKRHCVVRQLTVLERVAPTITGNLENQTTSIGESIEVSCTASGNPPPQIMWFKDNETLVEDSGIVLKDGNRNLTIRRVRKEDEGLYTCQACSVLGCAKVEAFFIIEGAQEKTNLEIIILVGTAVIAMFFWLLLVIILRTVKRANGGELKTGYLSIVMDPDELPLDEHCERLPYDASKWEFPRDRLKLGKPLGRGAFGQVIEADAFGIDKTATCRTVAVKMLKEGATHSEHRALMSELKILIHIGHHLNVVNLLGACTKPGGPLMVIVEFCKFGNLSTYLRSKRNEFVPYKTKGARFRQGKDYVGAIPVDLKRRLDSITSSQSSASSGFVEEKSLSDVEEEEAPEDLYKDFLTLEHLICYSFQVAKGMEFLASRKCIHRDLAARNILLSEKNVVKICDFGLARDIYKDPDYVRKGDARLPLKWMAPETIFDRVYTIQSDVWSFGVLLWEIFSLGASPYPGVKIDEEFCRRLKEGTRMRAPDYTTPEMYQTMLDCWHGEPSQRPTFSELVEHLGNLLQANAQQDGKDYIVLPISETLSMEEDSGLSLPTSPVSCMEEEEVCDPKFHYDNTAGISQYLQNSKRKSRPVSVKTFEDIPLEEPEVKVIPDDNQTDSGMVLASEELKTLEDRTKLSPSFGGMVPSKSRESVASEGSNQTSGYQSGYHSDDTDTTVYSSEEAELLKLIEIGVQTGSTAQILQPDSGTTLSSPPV
Inhibitor of nuclear factor kappa-B kinase subunit beta (Homo sapiens), sequence (O14920 whole entry, the tested form may be a part): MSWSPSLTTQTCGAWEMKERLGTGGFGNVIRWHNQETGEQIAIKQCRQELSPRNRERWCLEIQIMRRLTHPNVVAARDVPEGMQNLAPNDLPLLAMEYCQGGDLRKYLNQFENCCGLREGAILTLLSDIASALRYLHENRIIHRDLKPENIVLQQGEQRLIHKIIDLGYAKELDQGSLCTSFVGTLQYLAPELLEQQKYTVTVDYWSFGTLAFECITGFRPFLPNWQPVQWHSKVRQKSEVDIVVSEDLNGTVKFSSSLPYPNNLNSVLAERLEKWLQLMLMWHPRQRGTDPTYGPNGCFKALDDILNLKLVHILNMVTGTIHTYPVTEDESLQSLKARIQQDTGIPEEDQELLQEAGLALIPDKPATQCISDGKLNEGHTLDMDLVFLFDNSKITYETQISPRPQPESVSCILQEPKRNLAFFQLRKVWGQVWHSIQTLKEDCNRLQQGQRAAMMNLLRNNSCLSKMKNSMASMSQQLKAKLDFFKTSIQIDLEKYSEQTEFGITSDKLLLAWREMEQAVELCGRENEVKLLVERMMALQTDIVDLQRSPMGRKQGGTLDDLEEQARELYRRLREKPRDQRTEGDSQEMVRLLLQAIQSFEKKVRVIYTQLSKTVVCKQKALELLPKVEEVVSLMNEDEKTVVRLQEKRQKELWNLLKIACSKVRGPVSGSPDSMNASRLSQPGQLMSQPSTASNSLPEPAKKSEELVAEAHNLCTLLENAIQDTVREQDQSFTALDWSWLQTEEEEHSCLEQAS
Protein kinase C zeta type (Homo sapiens), sequence (Q05513 whole entry, the tested form may be a part): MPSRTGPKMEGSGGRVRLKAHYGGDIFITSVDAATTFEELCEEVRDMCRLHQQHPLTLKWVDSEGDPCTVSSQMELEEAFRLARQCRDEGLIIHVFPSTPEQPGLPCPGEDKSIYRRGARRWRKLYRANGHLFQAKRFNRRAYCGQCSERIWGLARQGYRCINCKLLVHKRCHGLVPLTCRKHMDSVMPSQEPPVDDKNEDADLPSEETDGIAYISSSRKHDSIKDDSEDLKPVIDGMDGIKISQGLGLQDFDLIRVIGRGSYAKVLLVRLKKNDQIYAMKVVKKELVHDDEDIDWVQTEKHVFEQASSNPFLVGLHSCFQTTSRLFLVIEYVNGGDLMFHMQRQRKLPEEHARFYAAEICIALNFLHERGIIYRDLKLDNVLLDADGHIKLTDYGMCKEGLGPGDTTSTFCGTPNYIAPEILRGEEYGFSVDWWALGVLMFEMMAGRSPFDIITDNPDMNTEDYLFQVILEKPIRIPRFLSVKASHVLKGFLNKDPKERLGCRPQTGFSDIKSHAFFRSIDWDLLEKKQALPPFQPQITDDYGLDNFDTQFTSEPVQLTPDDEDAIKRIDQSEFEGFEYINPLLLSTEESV
SRSF protein kinase 2 (Homo sapiens), sequence (P78362 whole entry, looked up): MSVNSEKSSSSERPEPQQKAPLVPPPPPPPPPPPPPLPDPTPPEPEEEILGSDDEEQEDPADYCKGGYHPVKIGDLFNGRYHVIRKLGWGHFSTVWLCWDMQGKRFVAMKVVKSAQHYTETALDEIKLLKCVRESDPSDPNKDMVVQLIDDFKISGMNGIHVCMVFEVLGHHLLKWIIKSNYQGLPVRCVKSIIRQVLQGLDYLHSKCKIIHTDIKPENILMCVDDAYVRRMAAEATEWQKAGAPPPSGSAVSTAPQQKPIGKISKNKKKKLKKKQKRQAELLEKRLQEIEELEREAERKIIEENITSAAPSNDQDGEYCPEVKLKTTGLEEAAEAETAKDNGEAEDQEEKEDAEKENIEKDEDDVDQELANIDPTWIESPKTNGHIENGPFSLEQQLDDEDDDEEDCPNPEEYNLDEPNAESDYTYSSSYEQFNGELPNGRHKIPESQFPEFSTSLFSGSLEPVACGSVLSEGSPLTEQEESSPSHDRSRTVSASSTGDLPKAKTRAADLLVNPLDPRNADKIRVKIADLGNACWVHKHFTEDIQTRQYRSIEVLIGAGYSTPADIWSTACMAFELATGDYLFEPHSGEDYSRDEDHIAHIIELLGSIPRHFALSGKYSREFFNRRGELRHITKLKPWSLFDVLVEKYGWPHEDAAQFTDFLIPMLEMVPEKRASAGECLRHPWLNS
Proto-oncogene tyrosine-protein kinase Src (Homo sapiens), sequence (P12931 2-536 limits assumed): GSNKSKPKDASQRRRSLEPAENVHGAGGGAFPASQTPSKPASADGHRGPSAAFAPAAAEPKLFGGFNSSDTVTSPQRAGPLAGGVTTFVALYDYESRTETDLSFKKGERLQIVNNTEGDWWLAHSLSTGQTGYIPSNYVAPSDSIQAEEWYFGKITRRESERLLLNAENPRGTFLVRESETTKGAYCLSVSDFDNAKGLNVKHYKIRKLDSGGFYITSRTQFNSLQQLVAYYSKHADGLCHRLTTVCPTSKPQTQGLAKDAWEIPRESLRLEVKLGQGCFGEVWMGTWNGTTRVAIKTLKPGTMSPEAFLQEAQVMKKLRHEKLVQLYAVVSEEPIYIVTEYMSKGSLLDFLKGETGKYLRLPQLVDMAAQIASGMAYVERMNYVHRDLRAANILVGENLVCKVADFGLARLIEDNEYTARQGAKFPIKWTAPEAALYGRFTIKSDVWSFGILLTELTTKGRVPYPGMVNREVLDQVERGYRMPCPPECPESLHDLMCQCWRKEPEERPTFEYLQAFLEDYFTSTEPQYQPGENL
MAP kinase-activated protein kinase 2 (Homo sapiens), sequence (P49137 whole entry, looked up): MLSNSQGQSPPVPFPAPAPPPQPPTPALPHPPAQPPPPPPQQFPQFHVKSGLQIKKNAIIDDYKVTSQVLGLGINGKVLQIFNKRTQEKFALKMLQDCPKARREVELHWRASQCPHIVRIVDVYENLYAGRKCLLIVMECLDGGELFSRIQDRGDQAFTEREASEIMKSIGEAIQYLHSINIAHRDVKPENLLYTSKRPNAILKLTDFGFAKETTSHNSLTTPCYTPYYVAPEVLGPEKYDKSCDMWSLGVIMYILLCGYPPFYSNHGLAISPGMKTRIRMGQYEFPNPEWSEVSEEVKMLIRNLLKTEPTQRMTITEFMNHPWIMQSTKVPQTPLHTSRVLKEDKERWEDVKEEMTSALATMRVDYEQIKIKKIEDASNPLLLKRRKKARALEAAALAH

Which Activity [1] does the source give for `CC(C)(O)CNc1ncc(-c2ccnc(Nc3ccnc(Cl)c3)n2)c(CC2CC2)n1` here?
The Activity was 117%.

What about the Activity [2] of the same molecule?
The Activity was 116%.

And the Activity [3]?
Its Activity is 106%.

What about the Activity [4] of the same molecule?
Its Activity is 103%.

And the Activity [5]?
Its Activity is 103%.

What about the Activity [6] of the same molecule?
The Activity was 95%.

And the Activity [7]?
Its Activity is 84%.

What about the inhibition [8] of the same molecule?
Its inhibition is “inactive”.

What about the inhibition [9] of the same molecule?
Its inhibition is “inactive”.

And the inhibition [10]?
The inhibition was “inactive”.

And the inhibition [11]?
Its inhibition is “inactive”.

And the inhibition [12]?
The inhibition was “inactive”.

And the inhibition [13]?
Its inhibition is “inactive”.

And the inhibition [14]?
Its inhibition is “inactive”.

And the inhibition [15]?
The inhibition was “inactive”.

And the inhibition [16]?
The inhibition was “inactive”.

And the inhibition [17]?
The inhibition was “inactive”.

What about the inhibition [18] of the same molecule?
The inhibition was “inactive”.

What about the inhibition [19] of the same molecule?
The inhibition was “inactive”.

What about the inhibition [20] of the same molecule?
Its inhibition is “inactive”.

And the inhibition [21]?
Its inhibition is “inactive”.

And the inhibition [22]?
The inhibition was “inactive”.

What about the inhibition [23] of the same molecule?
Its inhibition is “inactive”.

What about the inhibition [24] of the same molecule?
The inhibition was “inactive”.

What about the IC50 [25] of the same molecule?
The IC50 was greater than 10 µM.
